Data set [1] relates to HT29 tumors. Nature of the data set: In vivo tumor growth retardation, HT29 tumors grafted in nude mice. More on the design: species or system CD-1 nude mice. The following applies: i.v. on days 0, 5, 10 and 15, 4.05 µmol/kg. An excerpt:
The invention will be now described by non limiting examples referring to the following figures: • FIGURE 1. […] NT4(8-13) peptide binding and cell internalization. […] Lysosome localization of NT4(8-13)-TMR. […] NT4(8-13) binding to colon and pancreas tumoral biopsies. Confocal microscopy images of (A) human sections of colon carcinoma, (B) healthy colon, (C) pancreatic carcinoma and (D) healthy pancreas. […] NTR regeneration. […] NT4(8-13)-Che6 cytotoxicity. […] The cells were then washed to remove unbound conjugate and irradiated (except for dark controls) with a total light dose of 3 J/cm^2. Drug phototoxicity was assessed by measuring cell survival, using the MTT assay 24 hours after irradiation. Negative controls (--) included HT29 cells incubated with the conjugate and not irradiated, cells irradiated and not incubated and untreated cells. • FIGURE 9. […] Inhibition of cell growth was tested by an MTT assay after 72 hours of incubation. • FIGURE 10. In vivo tumor growth retardation mediated by NT4(8-13)-MTX. […] Five days after the last injection, animals were sacrificed and tumors were removed and weighed.

In another data set the target is T1, NT receptors (NTR) (Homo sapiens, UniProt P30989).
T1 construct: HT29 human adenocarcinoma cell membranes, that over-express NTR; endogenous in cells; host or cells: HT29 human colon adenocarcinoma cell membranes
As to the kind of experiment: Inhibition of 125I-NT binding to HT29 cell membranes. The settings on record: displacement of 125I-NT, HT29 human adenocarcinoma cell membranes. On the technique in general: Displacement assays read how much labelled ligand stays bound in the presence of the test substance.

The subject of data set [2] is HT29 cells. An excerpt: Nonetheless, down-regulation of receptors and their depletion from the membrane may dramatically impair the efficiency of a peptide-based therapy.
Data set [3] concerns healthy and tumoral pancreatic tissues. The following applies: 0.5 µg/ml, avidin-FITC.
Protocol: (§2) Tumoral and healthy colon and pancreatic tissues were collected from oncological patients undergoing tumor resection. Frozen tissue tek® (Sakura Finetechnical, Tokyo, Japan) embedded tissues were sliced 15 µm thick in a cryostat (Reichert- Jung 2800 frigocut N) and placed on glass slides. Serial sections of the same biopsy were analysed both by hematoxylin/eosin (H&E) light microscopy and by fluorescent confocal microscopy. For immunofluorescent analysis the sections were fixed by immersion in 3% paraformaldehyde in PBS for 15' at room temperature., washed once and stored over night at 4°C with 0.1 M glycine in PBS. After saturation with fetal calf serum, the slices were incubated for 30' at 37°C with NT4(8-13)-Bio (0.5 µg/ml in PBS-BSA 3%) or with the uncorrelated branched peptide (DDHSAV, SEQ ID No. 4)4-Bio (0.5 µg/ml in PBS-BSA 3%), washed twice with PBS and incubated with avidin-FITC (0.5 µg/ml in PBS-BSA 3%) for 15' at room temperature. After washing, the sections were mounted with Mowiol® (Calbiochem, Cat. No. 475904) and sealed with nail polish. Negative controls were carried out incubating the slices (both tumoral and normal tissues) with avidin-FITC without previous incubation with NT4(8-13)-Bio. The fluorescine signal was observed by confocal laser microscopy (BIO-Rad MRC600) with a 488 nm excitation light.
Another data set deals with human colon tumors. Nature of the data set: Fluorescent detection of NT receptors in colon biopsy sections. The data set is classed as binding. The following applies: 0.5 µg/ml, avidin-FITC.
In data set [4] the test system is HT29 cells. As to the kind of experiment: Phototoxicity (photokilling) by MTT assay. The data set is classed as cell-based, human. The settings on record: 4 hours at 37°C in the dark, 100 µM to 0.1 µM, irradiated 3 J/cm^2. As to the method: In order to assess the phototoxicity of NT4(8-13)-Che6 conjugate, photokilling experiments were carried out on HT29 cells. HT29 cells (2 x 10^4/well) were plated in 96-well microplates. After growing for 2 days, the cells were incubated at 37°C in the dark with different concentrations of NT4-Che6 (from 100 µM to 0.1 µM in RPMI with 10% FCS) for 4 hours. The cells were then washed to remove unbound conjugate and irradiated (except dark controls) with a Zeiss KL1500 tungsten halogen lamp (Zeiss, Jena, Germany) equipped with a 600-800 nm band pass filter (Corion, Franklin, MA) and with two optical fibers placed 1 cm from the well. The plate was placed back in the incubator overnight and the phototoxicity of the conjugate was monitored in a MTT assay. Similar experiments were performed with scramble NT4(8-13)-Che6 [(LRIPRY)4-Che6] and with free Che6. Further controls included HT29 cells incubated with the conjugate and not irradiated, cells irradiated and not incubated and untreated cells.

For data set [5], the system named is HT29 cells. Nature of the data set: In vitro cytostatic activity by MTT assay, HT29. The data set is classed as cell-based, human. The protocol:
HT29 cells were plated in 0.2 ml aliquots at a density of 5 x 10^3 in a 96-well microplate. Different concentrations of NT4-MTX were added 24 hours after plating. Growth inhibition was assessed by MTT assay 6 days later. The same experiments were carried out with the scramble analog of the conjugate and with free MTX.
The same experiments were performed with the scramble analogue [(LRIPRY)4-MTX] and with unconjugated MTX. SW620 (NTR-expressing human colon carcinoma cell line, Istituto Zooprofilattico Sperimentale, Brescia, Italy) and on HCT116 (NTR-expressing human colon carcinoma cell line, Istituto Zooprofilattico Sperimentale, Brescia, Italy cell lines) were also tested with the same procedure.

For data set [6], the system named is HT29 tumors. As to the method: Female CD-1 nude mice (Charles River Laboratories Inc., Wilmington, MA) 6-7 weeks of age (mean weight of 25 g), were injected subcutaneously in the right flank with of 2 x 10^6 HT29 cells.
Tumor volumes were measured daily with a caliper using the following formula: Volume = length x width^2 x Π/6. The tumor volumes for each group were pooled to plot mean tumor growth curves. At the end of the experiment, the mice were sacrificed. Tumors were removed and weighed and the weights compared between treated and control mice.

Another data set concerns HaCat cells. The settings on record: 5 µg/ml, 1h at 4°C. The protocol: (§1) Confocal laser microscopy was used to carry out receptor binding assays. […] After fixing with 4% formalin, the plasma membrane was stained by incubation with concanavalin A-biotin (10 µg/mL in PBS - 1% BSA, Molecular Probes, Cat. No. C21420) at 4°C for 15 min and avidin-FITC (0.5 µg/ml in PBS - 1% BSA, Sigma, Cat. No S3762).

For data set [7], the system named is HT29 cells. The following applies: 1 h at 4°C, washed, then 37°C.
For data set [8], the system named is HT29 cells. As to the kind of experiment: Confocal laser microscopy receptor binding assay on HT29 cells. The data set is classed as cell-based, human. The settings on record: 5 µg/ml in PBS - 1% BSA, 1 hour at 4°C. As to the method:
as §1

Data set [9] concerns HT29 cells. As to the kind of experiment: Lysosomal localization with lysotracker green in HT29 cells. The settings on record: 1 h at 4°C followed by 4 hours in DMEM at 37°C.

Like-named read-outs stand apart in the source and are kept apart here.

T1 sequence (P30989 whole entry): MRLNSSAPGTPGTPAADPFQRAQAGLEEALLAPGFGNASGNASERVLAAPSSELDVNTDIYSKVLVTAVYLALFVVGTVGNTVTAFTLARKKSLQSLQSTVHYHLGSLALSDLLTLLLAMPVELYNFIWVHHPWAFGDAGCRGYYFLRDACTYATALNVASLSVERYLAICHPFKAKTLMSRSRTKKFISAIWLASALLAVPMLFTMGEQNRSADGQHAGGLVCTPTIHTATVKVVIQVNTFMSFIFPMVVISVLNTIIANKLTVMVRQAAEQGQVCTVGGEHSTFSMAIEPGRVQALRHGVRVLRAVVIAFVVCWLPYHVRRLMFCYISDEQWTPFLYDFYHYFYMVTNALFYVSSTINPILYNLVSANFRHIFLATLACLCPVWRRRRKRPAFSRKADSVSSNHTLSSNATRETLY
Description for NT receptors (NTR): A tetrameric peptide carrying scrambled NT aminoacids (LRIPRY), scramble NT4(8-13), was used as control and allowed to verify sequence specificity.
Protocol for human colon tumors: as §2

Regarding `CN(Cc1cnc2nc(N)nc(N)c2n1)c1ccc(C(=O)N[C@@H](CCC(=O)O)C(=O)O)cc1` [MTX, Methotrexate], the tumor growth entry in the data set with HT29 tumors [1] (compared to control mice) was “slight decrease in tumor growth”. The “Tumor weight, measured at the end of the experiment” value in the data set with HT29 tumors [1] (five days after the last injection, Fig. 10) is given as “almost the same”.

Broadly, the IC50 is the concentration that inhibits the measured activity by half. With “Tetrameric NT(8-13)4-PEG-Biotin [NT4(8-13)-Bio]”, the IC50 on NT receptors (NTR) amounted to 0.1 nM. Further, the “green signal (avidin FITC) after receptor saturation” value in the data set on HT29 cells [2] (0.5 µg/ml, directly after saturation with NT4(8-13)-TMR) was “did not produce any detectable green signal”. Further, the “receptor availability for ligand binding after regeneration” value in the data set with HT29 cells [2] (after saturation with NT4(8-13)-TMR, washing and 37°C in culture medium overnight) is reported as “the receptor was again available for ligand binding”. Besides, the “binding to tumoral versus healthy tissue” value in data set [3] was “Analogous results”. The “fluorescent staining of tumoral biopsies” value with human colon tumors (colon tumoral biopsies (ten), 30' at 37°C) is given as “All colon tumoral specimens were positively stained”. Besides, the “fluorescent staining of healthy tissue” value in the data set with human colon tumors (corresponding normal colon tissue from the same patient) is “only one of the healthy tissues showed a low fluorescent signal”.

With “tetrabranched NT(8-13)4-PEG-Chlorine e6 [NT4(8-13)-Che6]”, the “phototoxicity (cell survival, MTT)” value in the data set with HT29 cells [4] was “maintained its cytotoxicity”. At NT receptors (NTR), this compound displayed a 50% inhibitory concentration (IC50) of 2200 nM.

Take “tetrabranched NT(8-13)-PEG-Methotrexate [NT4(8-13)-MTX]”: the “cytostatic activity (inhibition of cell growth, MTT)” value with HT29 cells [5] is recorded as “active”. The compound further returned an IC50 on NT receptors (NTR) of 500 nM. The mice death entry with HT29 tumors [6] (4.05 µmol/kg iv on days 0, 5, 10 and 15) is reported as “no mice death was observed”. Further, the Tumor weight result with HT29 tumors [6] (at the end of the experiment, 4.05 µmol/kg iv x4) is listed as “significantly reduced”. For the same compound, in the data set with HT29 tumors [6] (iv on days 0, 5, 10 and 15, 4.05 µmol/kg, compared to control mice), the tumor growth result is listed as “prevented tumor growth”. Further, in the data set on HT29 tumors [6] (iv on days 0, 5, 10 and 15, 4.05 µmol/kg, over the whole treatment), the “volume of tumors relative to mice injected with PBS” value is “about one third”.

Regarding “tetrameric NT(8-13)4-PEG-Tetramethyl rhodamine [NT4(8-13)-TMR]”, the rhodamine signal entry in the data set on HaCat cells is on record as “no rhodamine signal”. Further, the peptide fluorescence localization result in the data set with HT29 cells [7] (4 hours) was “completely internalised”; with HT29 cells [7] (18 hours), “complete degradation of the peptide conjugate”; in the data set with HT29 cells [7] (time 0), “localized exclusively on the plasma membrane”; in the data set on HT29 cells [7] (two hours), “present on the plasma membrane and in the cytoplasm”. Besides, in the data set with HT29 cells [8], the “red fluorescent signal on the plasma membrane” value is “binding of the peptide to membrane receptors”. In the data set on HT29 cells [2] (100 µg/ml in PBS - 1% BSA, 1 h at 4°C), the “saturation of membrane receptors” value is given as “saturated”. Besides, in the data set on HT29 cells [9], the lysosomal localization result is listed as “colocalization of NT4(8-13)-TMR with lysotracker green was observed”.
